Reference: patent publication US8044051B2, “Methods and compositions for the production of high concentration alloxazine solutions” (CaridianBCT Biotechnologies, LLC, priority 2006, dated 2011)
Values joined by “and” are separate entries in the source; they are usually repeats but may differ in a detail not shown here. Equal values may be shown once.

What was measured:
[1] = Concentration stability of riboflavin preparations over time (Example 4); assay type: physicochemical; settings: stored at ambient temperature and pressure
Description: The concentration stability of riboflavin was measured over a period of time to determine its stability.
Various preparation of riboflavin were prepared.
Samples 1-3 were prepared by adding 10 mg riboflavin to 100 mL saline, heating at 37° C. for 30 minutes, mixing on a stir-plate for 20 minutes, and filtering through a 20 micron filter.
Sample 4 was made by adding 10 mg riboflavin to 100 mL saline, heating, and filtering through a 0.2 micron filter.
Sample 5 was prepared by adding 20 mg riboflavin to 100 mL saline, heating while mixing for 30 minutes, and filtering through a 0.2 micron filter.
Sample 6 was prepared by adding 5 mg riboflavin to 10 mL saline, heating in a water bath at 60° C. for 30 minutes, shaking vigorously for 30 seconds, and filtering through a 0.2 micron filter.
The concentration stability of riboflavin compositions are shown for each preparation. The riboflavin concentration of each experimental heat treated riboflavin sample is above that of the unheated control sample. Further, the concentration remains stable over a period of time when stored at ambient temperature and pressure.

[2] = Saturation point / solubility of riboflavin in aqueous medium at ambient temperature and pressure
Description: An amount of alloxazine is measured for combination with a solvent such as an aqueous medium or a combination of aqueous medium and a non-polar solvent.

[3] = Riboflavin concentration by absorbance after heated mixing in saline and filtration (Example 3); assay type: physicochemical
Description: Riboflavin (approximately 70 mg) was added to saline (approximately 200 mL) and continuously mixed on a hot plate. The container was covered, and the solution was mixed for 40 minutes. the solution was filtered through a 0.2 micron filter. The filtered solution was diluted 1:10 and its absorbance was measured.
3 mL of the riboflavin and 147 mL saline were combined. […] 30 mL of the riboflavin/saline solution was transferred to each of four 75 cm^2 flasks, which were irradiated two at a time.

SMILES | concentration stability over time [1] | solubility compared to untreated riboflavin ([2]; room temperature) | concentrations of riboflavin solutions ([3]; Example 3 riboflavin solutions) | riboflavin decomposition (spectrum) ([3]; after heated mixing 40 minutes and filtration) | riboflavin concentration ([3]; approx. 70 mg in approx. 200 mL saline, mixed on hot plate 40 minutes, 0.2 micron filtered, absorbance of 1:10 dilution) [µM] | saturation point concentration of riboflavin ([2]; 22° C. and 1 atmosphere pressure, aqueous medium, untreated) [µM]
Cc1cc2nc3c(=O)[nH]c(=O)nc-3n(C[C@H](O)[C@H](O)[C@H](O)CO)c2cc1C [riboflavin derivative alpha] | stable over time | increased solubility | – | – | – | –
Cc1cc2nc3c(=O)[nH]c(=O)nc-3n(C[C@H](O)[C@H](O)[C@H](O)CO)c2cc1C [riboflavin, 7,8-dimethyl-10-ribityl isoalloxazine] | – | – | 515 µM and 528 µM | no evidence of riboflavin decomposition | 540 | 114
